Measured values from patent US7173019B2, “Linked cyclitols and their polysulfated derivatives” (The Australian National University, priority 2001, dated 2007).
In brackets after ≈: the same amount, converted by molar mass.

How the values were obtained:
rat aorta fragments = test: In vitro angiogenesis inhibition assay; assay type: cell-based; details: inhibitor 100 μg/ml; means of 4 culture wells per experiment; control 90; * significant, ** highly significant inhibition
Protocol: The ability of linked cyclitol compounds to inhibit angiogenesis in vitro was conducted using the assay essentially as described in the present applicant's International Patent Application No. PCT/AU95/00105 (Publication No. WO 95/23968), the entire content of which is incorporated herein by cross reference. The only changes to the procedure described in PCT/AU95/00105 were that the assays were conducted using rat aorta fragments rather than human placental vessel fragments.
All potential inhibitors were tested at 100 μg/ml with PI-88 also being tested at 10 μg/ml. The tabulated data represent means of 4 culture wells for each experiment. Significant inhibition of angiogenesis is indicated with a single asterisk while double asterisks denote highly significant inhibition.
The compounds were also tested at the same purity as in Example 15 save that the second entries for 4b and 4j relate to data obtained with higher purity compounds than the compounds used for the first data entries of each.

IL-8 = target: T1, IL-8 (Homo sapiens, UniProt P10145); test: Biacore biosensor: inhibition of IL-8 binding to immobilised heparin and heparan sulfate; details: inhibitor 1.0 μM, IL-8 0.068 μM; for Inhibition of binding of IL-8 (HS): immobilised heparan sulfate; for Inhibition of binding of IL-8 (Hep): immobilised heparin
T1 sequence (P10145 21-99): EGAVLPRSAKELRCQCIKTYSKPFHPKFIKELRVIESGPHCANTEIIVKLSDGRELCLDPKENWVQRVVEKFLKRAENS
Summary of the method: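 Biacore 2000 with neutravidin-coupled CM5 chips capturing biotinylated heparin (1 μg/ml) or heparan sulfate. Compound and IL-8 preincubated 2 to 5 minutes before injection; binding to the immobilised glycosaminoglycan monitored for about 5 minutes.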

VEGF = target: T2, VEGF (Homo sapiens, UniProt P15692); test: Biacore biosensor: inhibition of VEGF binding to immobilised heparin and heparan sulfate; details: inhibitor 0.034 μM, VEGF 0.025 μM; for Inhibition of binding of VEGF (HS): immobilised heparan sulfate; for Inhibition of binding of VEGF (Hep): immobilised heparin
T2 sequence (P15692 27-191 isoform P15692-4): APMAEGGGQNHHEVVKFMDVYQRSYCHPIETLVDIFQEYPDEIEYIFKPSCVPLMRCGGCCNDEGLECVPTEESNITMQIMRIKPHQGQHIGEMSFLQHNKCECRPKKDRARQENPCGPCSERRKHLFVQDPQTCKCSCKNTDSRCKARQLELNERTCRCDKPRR
Summary of the method: (§1)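 Biotinylated heparin (1 μg/ml) or heparan sulfate was captured on neutravidin-coupled CM5 biosensor chips. Test compound and growth factor were preincubated 2 to 5 min, then growth-factor binding to the immobilised glycosaminoglycan was monitored for about 5 min; values are IC50 (μM) or % inhibition of binding.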

aFGF = aFGF (Homo sapiens, UniProt P05230); test: Biacore biosensor: inhibition of aFGF binding to immobilised heparin and heparan sulfate; details: inhibitor 0.034 μM, aFGF 0.025 μM; for Inhibition of binding of aFGF (HS): immobilised heparan sulfate; for Inhibition of binding of aFGF (Hep): immobilised heparin
Summary of the method: as §1

[1] = target: T3, human platelet heparanase (Homo sapiens, UniProt Q9Y251); test: Heparanase inhibition, 3H-radiolabelled HS cleavage assay; assay type: biochemical; details: for Relative inhibition (%): based on a comparison with heparin with 100% inhibition at 30 μg/ml; for EC50: heparanase inhibition
T3 construct: 10 ng of purified human platelet heparanase; from tissue; host or cells: human platelets
T3 sequence (Q9Y251 158-543 limits assumed): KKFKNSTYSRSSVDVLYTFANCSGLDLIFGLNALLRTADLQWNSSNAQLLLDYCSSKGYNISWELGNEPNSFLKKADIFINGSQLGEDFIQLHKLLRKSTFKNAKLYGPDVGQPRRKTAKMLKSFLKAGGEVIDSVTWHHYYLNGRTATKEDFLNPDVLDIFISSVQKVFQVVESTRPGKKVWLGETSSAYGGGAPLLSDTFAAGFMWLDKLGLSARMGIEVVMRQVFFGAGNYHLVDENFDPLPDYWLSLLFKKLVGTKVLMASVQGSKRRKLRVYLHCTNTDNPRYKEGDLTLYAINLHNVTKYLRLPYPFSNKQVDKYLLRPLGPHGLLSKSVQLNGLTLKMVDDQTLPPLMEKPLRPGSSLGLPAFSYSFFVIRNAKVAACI
T3 sequence (Q9Y251 36-109 limits assumed): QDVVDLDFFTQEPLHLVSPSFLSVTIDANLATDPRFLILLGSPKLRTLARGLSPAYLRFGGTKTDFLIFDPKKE
Summary of the method: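 Purified human platelet heparanase (10 ng) with ^3H-labelled porcine mucosal HS […] in 50 mM sodium acetate pH 5.0 plus BSA, 30 min; stopped by freezing. Products separated from substrate on histidine-rich glycoprotein–sepharose minicolumns; inhibition expressed relative to heparin at 30 μg/ml taken as 100%.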

[2] = target: T4, human leukocyte Cathepsin G (Homo sapiens, UniProt P08311); test: Cathepsin G inhibition, fluorogenic substrate, 96 well assay; assay type: biochemical; details: human leukocyte cathepsin G 100 ng, 37° C., 60 min, pH 6.6
T4 construct: human leukocyte Cathepsin G (100 ng protein); from tissue; host or cells: human leukocytes
T4 sequence (P08311 21-244): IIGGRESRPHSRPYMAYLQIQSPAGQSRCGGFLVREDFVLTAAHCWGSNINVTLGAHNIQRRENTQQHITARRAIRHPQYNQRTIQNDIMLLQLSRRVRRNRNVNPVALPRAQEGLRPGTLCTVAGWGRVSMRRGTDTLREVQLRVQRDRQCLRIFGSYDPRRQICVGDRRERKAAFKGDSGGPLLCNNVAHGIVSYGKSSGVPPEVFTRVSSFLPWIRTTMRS
Summary of the method: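 Inhibitor mixed with fluorogenic substrate MeOSuc-ala-ala-pro-phe-AMAC and human leukocyte Cathepsin G (100 ng) in 50 mM NaOAc pH 6.6, 50 mM NaCl, 0.1% Brij 35; 60 min at 37° C. Stopped with 250 mM acetic acid; fluorescence ex 360/em 460 nm. Value is concentration giving 50% inhibition.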

bFGF = bFGF (Homo sapiens, UniProt P09038); test: Biacore biosensor: inhibition of bFGF binding to immobilised heparin and heparan sulfate; details: inhibitor 0.034 μM, bFGF 0.034 μM; for Inhibition of binding of bFGF (HS): immobilised heparan sulfate; for Inhibition of binding of bFGF (Hep): immobilised heparin
Summary of the method: as §1

aFGF, sequence (P05230 whole entry, species assumed): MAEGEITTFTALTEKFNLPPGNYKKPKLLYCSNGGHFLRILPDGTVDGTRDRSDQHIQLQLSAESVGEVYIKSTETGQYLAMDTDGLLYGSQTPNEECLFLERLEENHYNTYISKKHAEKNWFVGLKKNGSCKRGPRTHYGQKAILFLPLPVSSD
bFGF, sequence (P09038 134-288 limits assumed, species assumed): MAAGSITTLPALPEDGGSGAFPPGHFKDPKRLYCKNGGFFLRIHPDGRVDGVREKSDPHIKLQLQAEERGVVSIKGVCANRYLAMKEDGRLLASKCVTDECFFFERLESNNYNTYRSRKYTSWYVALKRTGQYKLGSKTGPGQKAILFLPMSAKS

O=S(=O)(O)OC1C=CC(N(Cc2ccc(CN(C3C=CC(OS(=O)(=O)O)C(OS(=O)(=O)O)C3OS(=O)(=O)O)C3C=CC(OS(=O)(=O)O)C(OS(=O)(=O)O)C3OS(=O)(=O)O)cc2)C2C=CC(OS(=O)(=O)O)C(OS(=O)(=O)O)C2OS(=O)(=O)O)C(OS(=O)(=O)O)C1OS(=O)(=O)O (stereo not drawn) [Compound 4e]
% Growth (rat aorta fragments): 55* % | Inhibition of binding of IL-8 (HS) (IL-8): 65% (HS) | Inhibition of binding of IL-8 (Hep) (IL-8): 62% (Hep) | Inhibition of binding of VEGF (HS) (VEGF): 51% (HS) | Inhibition of binding of VEGF (Hep) (VEGF): 63% (Hep) | Inhibition of binding of aFGF (HS) (aFGF): 63% (HS) | Inhibition of binding of aFGF (Hep) (aFGF): 66% (Hep) | Relative inhibition (%) [1]: 70% | EC50 [1]: 9 µg/mL (≈ 5.59 µM) | Amount for 50% inhibition [2]: 0.30 µg/mL | Inhibition of binding of bFGF (HS) (bFGF): 61% (HS) | Inhibition of binding of bFGF (Hep) (bFGF): 49% (Hep)

O=S(=O)(O)OC(CN([C@H]1[C@H](OS(=O)(=O)O)[C@H](OS(=O)(=O)O)[C@@H](OS(=O)(=O)O)[C@@H](OS(=O)(=O)O)[C@@H]1OS(=O)(=O)O)[C@H]1[C@H](OS(=O)(=O)O)[C@H](OS(=O)(=O)O)[C@@H](OS(=O)(=O)O)[C@@H](OS(=O)(=O)O)[C@@H]1OS(=O)(=O)O)CN([C@H]1[C@H](OS(=O)(=O)O)[C@H](OS(=O)(=O)O)[C@@H](OS(=O)(=O)O)[C@@H](OS(=O)(=O)O)[C@@H]1OS(=O)(=O)O)[C@H]1[C@H](OS(=O)(=O)O)[C@H](OS(=O)(=O)O)[C@@H](OS(=O)(=O)O)[C@@H](OS(=O)(=O)O)[C@@H]1OS(=O)(=O)O [Compound 5l]
% Growth (rat aorta fragments): 80% | Inhibition of binding of IL-8 (HS) (IL-8): 42% (HS) | Inhibition of binding of IL-8 (Hep) (IL-8): 52% (Hep) | Inhibition of binding of VEGF (HS) (VEGF): 11% (HS) | Inhibition of binding of VEGF (Hep) (VEGF): 13% (Hep) | Inhibition of binding of aFGF (HS) (aFGF): 54% (HS) | Inhibition of binding of aFGF (Hep) (aFGF): 67% (Hep) | Relative inhibition (%) [1]: 85% | EC50 [1]: 12 µg/mL (≈ 4.96 µM) | Amount for 50% inhibition [2]: 0.53 µg/mL | Inhibition of binding of bFGF (HS) (bFGF): 43% (HS) | Inhibition of binding of bFGF (Hep) (bFGF): 33% (Hep)
